Tests used:
[1] = test system: MC38 mouse colon cancer cells; assay: Prophylactic CASIN treatment, syngeneic MC38 tumor model in C57BL/6 mice; type: in vivo
Experimental: FIG. 4. Prophylactic CASIN causes anti-tumor immunity. C57BL/6 mice were injected (i.p.) with vehicle or 30 mg/kg body weight of CASIN twice a day for one week and then 40 mg/kg body weight of CASIN once a day until the end of the experiment. One day after the first CASIN treatment, the mice were injected (s.c.) with MC38 (8×10^5). Tumor growth was monitored (A). Upon euthanasia, tumors were dissected and the expression of IFN-γ^+, IL-4^+ and/or IL-17^+ within CD4^+Foxp3^+ (B), CD4^+Foxp3^− (C), and CD8^+ (D) cells was analyzed by flow cytometry. n=7. Error bars indicate SD. **p<0.01; *p<0.05. In FIGS. 4(A)-(D), data for vehicle administration is the top line (furthest from the x-axis) in FIG. 4A and left side of each data representation in FIGS. 4(B)-(D); and data for CASIN administration is the bottom line (closest to the x-axis) in FIG. 4(A) and right side of each data representation in FIGS. 4(B)-(D).
(§1) The Cdc42 conditional knockout mice and CASIN were developed in CCHMC by Dr. Yi Zheng lab (Yang L, Wang L, Zheng Y. Gene targeting of Cdc42 and Cdc42GAP affirms the critical involvement of Cdc42 in filopodia induction, directed migration, and proliferation in primary mouse embryonic fibroblasts. Mol Biol Cell. 2006 November; 17(11):4675-85) (Liu W, Du W, Shang X, Wang L, Evelyn C, Florian M C, A Ryan M, Rayes A, Zhao X, Setchell K, Meller J, Guo F, Nassar N, Geiger H, Pang Q, Zheng Y. Rational identification of a Cdc42 inhibitor presents a new regimen for long-term hematopoietic stem cell mobilization. Leukemia. 2019 March; 33(3):749-761). In the examples below, the effects of Cdc42 deletion and CASIN on T-cell immunity against tumor growth of colorectal cancer cells and/or pancreatic cancer cells was evaluated. […]
C57BL/6 mice were injected (i.p.) with vehicle or 30 mg/kg body weight of CASIN twice a day for one week and then 40 mg/kg body weight of CASIN once a day until the end of the experiment. […] Tumor growth was monitored. […]

[2] = test system: MC38 mouse colon cancer cells; assay: Therapeutic CASIN treatment upon tumor onset, MC38 tumor model in C57BL/6 mice, with or without Anti-CD4/CD8 T-cell depletion; type: in vivo
Experimental: FIG. 5. Therapeutic CASIN treatment causes anti-tumor T-cell immunity. C57BL/6 mice were inoculated (s.c.) with MC38 (8×10^5) at day 1 and injected (i.p.) with Anti-CD4/CD8 neutralizing antibodies (5 mg/kg body weight for each antibody) or isotype control antibody once every 4 days starting at day 1. Starting from day 10 when tumor onset was observed, the mice were treated with vehicle or CASIN as described for FIG. 4 above. Tumor volume was monitored (A). At day 14, depletion of T-cells in peripheral blood from the mice treated with Anti-CD4/CD8 neutralizing antibodies was confirmed by flow cytometry (data not shown). Upon euthanasia, tumors were dissected from isotype control antibody-treated mice. The expression of IFN-γ^+ and IL-17^+ in CD4^+Foxp3^+ cells was analyzed by flow cytometry (B). CD3^+ T-cells were visualized by immunohistochemistry using anti-CD3 antibody (C). The expression of IFN-γ^+ and/or IL-17^+ in CD4^+Foxp3^− (D) and CD8^+ cells (E) was analyzed by flow cytometry. n=5. Error bars indicate SD. **p<0.01; *p<0.05. […]
as §1, with “Leukemia. 2019 March; 33(3):749-761).” left out
C57BL/6 mice were injected (s.c.) with MC38 (8×10^5) at day 1 and injected (i.p.) with Anti-CD4/CD8 neutralizing antibodies (5 mg/kg body weight for each antibody) or isotype control antibody once every 4 days starting at day 1. […] Tumor volume was monitored. […]

[3] = test system: MC38 mouse colon cancer cells; assay: MC38 tumor growth in Cdc42+/- mice treated with AZA; type: in vivo; settings: AZA 40 mg/kg i.p. once a day, started three days before MC38 (8×10^5) s.c.; vs Cdc42+/- + vehicle; FIG. 3F
Experimental: (§2) FIG. 3. […] (A, B) Treg-specific heterozygous deletion of Cdc42 upregulates CAI and alkalizes extracellular pH of Tregs. Splenic CD4^+ YFP^+ Tregs were flow-sorted from WT and Cdc42^+/− mice. CAI expression was detected by Q-PCR (A). Another aliquot of the cells were cultured with Anti-CD3/CD28 and IL-2 for 36 hrs. pH of the culture medium (pHe) was measured by a pH meter. (C, D) Extracellular alkalization destabilizes Tregs. Splenic CD4^+ YFP^+ Tregs from WT mice were cultured as described in B, with regular medium of pH 7.4 or medium of pH 7.56 (C). Alternatively, the cells were cultured with conditional medium (CM) from WT Treg culture or from Cdc42^+/− Treg culture (D). Percentages of IFN-γ^+ cells within Tregs (left) and non-Tregs (right) were analyzed by flow cytometry. (E) Inhibition of CAI by acetazolamide (AZA) rescues instability of Cdc42^+/− Tregs. […] Percentages of IFN-γ^+ cells within Tregs (left) and non-Tregs (right) were analyzed by flow cytometry. […] Three days after starting AZA injection, the mice were inoculated (s.c.) with MC38 (8×10^5) and tumor volume was recorded. n=4-7. […]
(§3) Cdc42^fl/+Foxp3^YFP-Cre and Cdc42^+/+Foxp3^YFP-Cre mice were inoculated (s.c.) with MC38 mouse colon cancer cells (8×10^5) or KPC mouse pancreatic cancer cells (8×10^5). Tumor volume was monitored. […] Quantitative real-time RT-PCR (Q-PCR) confirmed the upregulation of CAI in Cdc42^+/− Tregs (FIG. 3A). […]

[4] = test system: Splenic CD4+ YFP+ Tregs from Cdc42+/- mice; assay: Stability of Cdc42+/- Tregs cultured with or without acetazolamide (flow cytometry, IFN-γ+ cells); type: cell-based, mouse; settings: Splenic CD4+ YFP+ Tregs from Cdc42+/- mice cultured with AZA; FIG. 3E
Experimental: as §2, §3

Row | SMILES | tumor growth ([1]; CASIN i.p. 30 mg/kg twice a day for one week then 40 mg/kg once a day, started one day before MC38 s.c., vs vehicle, FIG. 4A) | Treg stability (IFN-γ+, IL-4+, IL-17+ within tumor CD4+Foxp3+ cells) ([1]; prophylactic CASIN, dissected tumors, flow cytometry, FIG. 4B) | effector T cells (tumor CD4+Foxp3- and CD8+ cells) ([1]; prophylactic CASIN, dissected tumors, flow cytometry, FIG. 4C, D) | tumor growth (tumor volume) ([2]; CASIN i.p. 30 mg/kg twice a day for one week then 40 mg/kg once a day from day 10 (tumor onset), isotype control antibody, FIG. 5A) | Treg stability (IFN-γ+ and IL-17+ in tumor CD4+Foxp3+ cells) ([2]; therapeutic CASIN, dissected tumors, flow cytometry, FIG. 5B) | effector T-cells (CD3+ T-cells, IFN-γ-producing CD4+Foxp3- and CD8+ cells) in tumors ([2]; therapeutic CASIN, immunohistochemistry and flow cytometry, FIG. 5C-E) | tumor growth (tumor volume) in Cdc42+/- mice [3] | instability of Cdc42+/- Tregs (percentages of IFN-γ+ cells within Tregs) [4]
1 | OCCNC1CCCc2c1[nH]c1ccc(-c3ccccc3)cc21 (centres unmarked) [CASIN] | suppressing tumor growth | destabilizing Tregs | increasing effector T cells | inhibited tumor growth | Treg instability | increased effector T-cells | – | –
2 | CC(=O)Nc1nnc(S(N)(=O)=O)s1 [acetazolamide] | – | – | – | – | – | – | restores tumor growth | rescued the instability

Reference: patent US20220288020A1, “METHOD OF TREATING NEOPLASTIC DISEASES WITH A CDC42-SPECIFIC INHIBITOR” (Children's Hospital Medical Center, priority 2019, published 2022)
